*1 amine or outer side, *2 acyl side, *3 side chain or, on linkers, in order; H or OH if unused. Where a SMILES comes first, the peptide text is derived from it. Side-chain parts run from the residue outwards. [ ]: non-standard residue; d: D form. The star is where a group is joined. C20 diacid = O=C(O)CCCCCCCCCCCCCCCCCCC(=O)*; γGlu = O=C(O)[C@H](CCC(=O)[*:2])N[*:1]; AEEA = NCCOCCOCC(=O)O; Aib = CC(C)(N)C(=O)O
Tests used:
[1] = test system: diet-induced obese mice; assay: Body weight and fat mass in diet-induced obese mice; assay type: in vivo, C57BL/6 mice; conditions: for rate of change in body weight / viscera/brain ratio for fat mass, Epididymal fat / viscera/brain ratio for fat mass, Inguinal fat / viscera/brain ratio for fat mass, Mesenteric fat / viscera/brain ratio for fat mass, Perirenal fat / viscera/brain ratio for fat mass, Scapular fat / viscera/brain ratio for fat mass, Subcutaneous fat: DIO mice; for viscera/brain ratio for fat mass, Epididymal fat / viscera/brain ratio for fat mass, Inguinal fat / viscera/brain ratio for fat mass, Mesenteric fat / viscera/brain ratio for fat mass, Perirenal fat / viscera/brain ratio for fat mass, Scapular fat / viscera/brain ratio for fat mass, Subcutaneous fat: end of study
Method: (§1) High-fat food-induced obese male C57BL/6 mice (weighing 35-55 g, aged 10-12 weeks, purchased from Shanghai Jiesijie Laboratory Animal Co., Ltd.) were tested. […] According to the experimental design, the body weight of each mouse was measured and recorded on day 0, day 3, day 6 and so on to day 27, the average body weight of each group of mice was calculated, and weight change curves were plotted by taking the body weight on the first day as the standard. At the end, the fat and other visceral organs of each part of the mice were taken out and weighed, and the viscera/brain ratio for fat in each part of each mouse was calculated. The effect of the drug on the fat was determined by comparing the change in the organ/brain ratio for fat of different parts of each group of mice.

[2] = test system: DIO mice; assay: Food intake ration of diet-induced obese mice; assay type: in vivo, C57BL/6 mice
Method: as §1
The food intake ration of mice in each group was measured daily during the test.

[3] = test system: db/db mice; assay: Glucose metabolism level in db/db mice; assay type: in vivo, C57BL/KsJ-db/db mice
Method: Each administration group contained 10 db/db mice. According to the experimental design, tail vein blood was collected by needle pricking on days 0, 7, 14, 21 and 28 and determined for fasting blood glucose levels with a glucometer and glucose dipsticks, and the mice were fasted 6 h prior to the blood collection at each time point. Tail vein blood was collected by needle pricking on days 3, 10, 17, 24 and 27 and randomly determined for blood glucose levels with a glucometer. Finally, at the end of the experiment on day 28, all the animals in the administration groups were subjected to 2-5% isoflurane inhalation anesthesia, and 100 μL of EDTA-K2 anticoagulated whole blood was collected through the orbit of each mouse and used for the determination of glycated hemoglobin.

## CC[C@H](C)[C@H](NC(=O)[C@H](CCCCN)NC(=O)[C@H](CCC(=O)O)NC(=O)[C@H](CCCCNC(=O)COCCOCCNC(=O)COCCOCCNC(=O)CC[C@H](NC(=O)CCCCCCCCCCCCCCCCCCC(=O)O)C(=O)O)NC(=O)[C@H](Cc1ccc(O)cc1)NC(=O)[C@@H](NC(=O)[C@H](CO)NC(=O)[C@H](Cc1ccc(O)cc1)NC(=O)[C@H](CC(=O)O)NC(=O)[C@H](CO)NC(=O)[C@@H](NC(=O)[C@H](Cc1ccccc1)NC(=O)[C@@H](NC(=O)CNC(=O)[C@H](CCC(=O)O)NC(=O)C(C)(C)NC(=O)[C@@H](N)Cc1ccc(O)cc1)[C@@H](C)O)[C@@H](C)O)[C@@H](C)CC)C(=O)N[C@@H](C)C(=O)N[C@@H](C)C(=O)N[C@@H](CCC(N)=O)C(=O)N[C@@H](CCC(=O)O)C(=O)N[C@@H](Cc1ccccc1)C(=O)N[C@H](C(=O)N[C@@H](CC(N)=O)C(=O)N[C@@H](Cc1c[nH]c2ccccc12)C(=O)N[C@@H](CC(C)C)C(=O)N[C@@H](CC(C)C)C(=O)N[C@@H](C)C(=O)NCC(=O)NCC(=O)N1CCC[C@H]1C(=O)N[C@@H](CO)C(=O)N[C@@H](CO)C(=O)NCC(=O)N[C@@H](C)C(=O)N1CCC[C@H]1C(=O)N1CCC[C@H]1C(=O)N1CCC[C@H]1C(=O)N[C@@H](CO)C(N)=O)C(C)C [Compound 18#] (H-Y[Aib]EGTFTSDYSIYK([AEEA-AEEA-γGlu-C20 diacid])EKIAAQEFVNWLLAGGPSSGAPPPS-NH2)
[1]; 3 nmol/kg sc, day 1 after administration
  rate of change in body weight: −5 ± 0.6%
[1]; 3 nmol/kg sc, day 6 after administration
  rate of change in body weight: −10 ± 4.4 %
[1]; 3 nmol/kg sc, day 7 after administration
  rate of change in body weight: −13 ± 5.3 %
[1]; 3 nmol/kg sc
  viscera/brain ratio for fat mass, Epididymal fat: 254.6 ± 113.4 %
  viscera/brain ratio for fat mass, Inguinal fat: 281.5 ± 140.1 %
  viscera/brain ratio for fat mass, Mesenteric fat: 84.8 ± 41.3 %
  viscera/brain ratio for fat mass, Perirenal fat: 159.2 ± 87.6 %
  viscera/brain ratio for fat mass, Scapular fat: 48 ± 15.3%
  viscera/brain ratio for fat mass, Subcutaneous fat: 120 ± 62 %
[1]; 10 nmol/kg sc, day 6 after administration
  rate of change in body weight: −15 ± 5.3 %
[1]; 10 nmol/kg sc, day 24 after administration
  rate of change in body weight: −26 ± 7.1 %
[1]; 10 nmol/kg sc
  viscera/brain ratio for fat mass, Epididymal fat: 211.7 ± 80.7 %
  viscera/brain ratio for fat mass, Inguinal fat: 194.4 ± 86.2 %
  viscera/brain ratio for fat mass, Mesenteric fat: 53.3 ± 14.6 %
  viscera/brain ratio for fat mass, Perirenal fat: 109.4 ± 57.1 %
  viscera/brain ratio for fat mass, Scapular fat: 42.5 ± 17^ %
  viscera/brain ratio for fat mass, Subcutaneous fat: 122 ± 73.2 %
[1]; 100 nmol/kg sc, day 20 after administration
  rate of change in body weight: −39 ± 6.5 %
[1]; 100 nmol/kg sc, day 23 after administration
  rate of change in body weight: −38 ± 5.9 %
[1]; 100 nmol/kg sc
  viscera/brain ratio for fat mass, Epididymal fat: 102.9 ± 32.2 %
  viscera/brain ratio for fat mass, Inguinal fat: 92 ± 34.5 %
  viscera/brain ratio for fat mass, Mesenteric fat: 27.4 ± 11.1 %
  viscera/brain ratio for fat mass, Perirenal fat: 46.6 ± 18.2 %
  viscera/brain ratio for fat mass, Scapular fat: 32.3 ± 7%
  viscera/brain ratio for fat mass, Subcutaneous fat: 57.1 ± 21.2 %
[1]; high-fat food-induced obese mice, 10 nmol/kg, day 27, text
  body weight reduced by: more than 20.0%
[2]; 3 nmol/kg sc, day 3 after administration
  daily food intake ration: 2 ± 0.5 g
[2]; 3 nmol/kg, 28 days after the administration
  cumulative food intake ration: 58.2 g
[2]; 3 nmol/kg, within 5 days after the administration
  cumulative food intake ration: 7.2 g
[2]; 10 nmol/kg sc, day 9 after administration
  daily food intake ration: 2 ± 0.6 g
[2]; 10 nmol/kg sc, day 15 after administration
  daily food intake ration: 3 ± 0.9 g
[2]; 10 nmol/kg sc, day 20 after administration
  daily food intake ration: 2 ± 0.5 g
[2]; 10 nmol/kg, 28 days after the administration
  cumulative food intake ration: 46.8 g
[2]; 10 nmol/kg, within 5 days after the administration
  cumulative food intake ration: 3.9 g
[2]; 100 nmol/kg sc, day 15 after administration
  daily food intake ration: 2 ± 0.4 g
[2]; 100 nmol/kg sc, day 18 after administration
  daily food intake ration: 2 ± 0.4 g
[2]; 100 nmol/kg, 28 days after the administration
  cumulative food intake ration: 36.7 g
[2]; 100 nmol/kg, within 5 days after the administration
  cumulative food intake ration: 1.8 g
[3]; 10 nmol/kg sc, Day 0
  Concentration of fasting blood glucose: 14.77 ± 1.30 mmol/L
  Concentration of random blood glucose: 20.42 ± 1.56 mmol/L
[3]; 10 nmol/kg sc, Day 7
  Concentration of fasting blood glucose: 6.05 ± 0.42 mmol/L
[3]; 10 nmol/kg sc, Day 10
  Concentration of random blood glucose: 20.66 ± 1.48 mmol/L
[3]; 10 nmol/kg sc, Day 14
  Concentration of fasting blood glucose: 6.30 ± 0.46 mmol/L
[3]; 10 nmol/kg sc, Day 17
  Concentration of random blood glucose: 18.91 ± 1.33 mmol/L
[3]; 10 nmol/kg sc, Day 21
  Concentration of fasting blood glucose: 7.89 ± 0.81 mmol/L
[3]; 10 nmol/kg sc, Day 24
  Concentration of random blood glucose: 21.17 ± 2.07 mmol/L
[3]; 10 nmol/kg sc, Day 28
  Concentration of fasting blood glucose: 9.41 ± 0.97 mmol/L
[3]; 10 nmol/kg sc, day 28
  Glycated hemoglobin: 4.71 ± 0.23 %
[3]; 30 nmol/kg sc, Day 0
  Concentration of fasting blood glucose: 14.13 ± 1.32 mmol/L
  Concentration of random blood glucose: 16.73 ± 1.59 mmol/L
[3]; 30 nmol/kg sc, Day 7
  Concentration of fasting blood glucose: 6.21 ± 0.26 mmol/L
[3]; 30 nmol/kg sc, Day 10
  Concentration of random blood glucose: 15.88 ± 1.86 mmol/L
[3]; 30 nmol/kg sc, Day 14
  Concentration of fasting blood glucose: 6.40 ± 0.57 mmol/L
[3]; 30 nmol/kg sc, Day 17
  Concentration of random blood glucose: 17.30 ± 1.17 mmol/L
[3]; 30 nmol/kg sc, Day 21
  Concentration of fasting blood glucose: 7.03 ± 0.52 mmol/L
[3]; 30 nmol/kg sc, Day 24
  Concentration of random blood glucose: 17.43 ± 1.92 mmol/L
[3]; 30 nmol/kg sc, Day 28
  Concentration of fasting blood glucose: 9.68 ± 1.03 mmol/L
[3]; 30 nmol/kg sc, day 28
  Glycated hemoglobin: 4.53 ± 0.17 %
[3]; 100 nmol/kg sc, Day 0
  Concentration of fasting blood glucose: 14.67 ± 1.46 mmol/L
  Concentration of random blood glucose: 9.11 ± 1.25 mmol/L
[3]; 100 nmol/kg sc, Day 7
  Concentration of fasting blood glucose: 5.85 ± 0.33 mmol/L
[3]; 100 nmol/kg sc, Day 10
  Concentration of random blood glucose: 12.34 ± 1.12 mmol/L
[3]; 100 nmol/kg sc, Day 14
  Concentration of fasting blood glucose: 6.25 ± 0.32 mmol/L
[3]; 100 nmol/kg sc, Day 17
  Concentration of random blood glucose: 11.89 ± 1.15 mmol/L
[3]; 100 nmol/kg sc, Day 21
  Concentration of fasting blood glucose: 6.13 ± 0.19 mmol/L
[3]; 100 nmol/kg sc, Day 24
  Concentration of random blood glucose: 11.51 ± 0.95 mmol/L
[3]; 100 nmol/kg sc, Day 28
  Concentration of fasting blood glucose: 7.89 ± 0.41 mmol/L
[3]; 100 nmol/kg sc, day 28, listed as 18 #
  Glycated hemoglobin: 3.78%
[3]; 100 nmol/kg sc, day 28, listed as #18
  Glycated hemoglobin: 3.78 ± 0.13 %
